# Assays:
# [1] = in vivo; cited from earlier work
# [2] = Spontaneous hydrolysis of the methyl ester of cocaine to benzoyl ecgonine (HPLC); settings: buffer, pH 7
# [3] = tested on: mAb 6A12; assay: Inhibition of 6A12-catalyzed cocaine hydrolysis; settings: 1 mM
# [4] = tested on: mAb 3B9; assay: Inhibition of 3B9-catalyzed cocaine hydrolysis; type: biochemical, BALB/c mice; settings: 1 mM
# [5] = equine BChE, ph7.4, published sources; cited from earlier work
compound,measurement,setting,value
COC(=O)[C@H]1[C@@H](OC(=O)c2ccccc2)C[C@@H]2CC[C@H]1N2C [cocaine],dose excreted unchanged in the urine,[1],< 10%
same,half-life,[2],20 h
CNC(=O)Oc1ccc2c(c1)[C@]1(C)CCN(C)[C@@H]1N2C [eserine],effect of serum esterase inhibitor on enzyme,[3],unaffected
same,effect of serum esterase inhibitor on enzyme,[4],unaffected
"BChE: equine butyrylcholinesterase, the principal cocaine esterase in serum",Kcat,[5],0.02 s⁻¹
same,Km,[5],38 µM

# From patent US6566084B1, “Catalytic antibodies against cocaine and methods of using and producing same” (priority 1992, dated 2003)
